# Measurements from US20260364215A1, “Radiopharmaceutical Compositions Targeting Ephrin Type-A Receptor 2 and Uses Thereof” (PeptiDream Inc., priority 2022, published 2026).
# Numbered stars: 1 amine (or outer) side, 2 acyl side, 3 side chain; on linkers, the order of the positions; unused ones are H or OH. Bridge positions count the residues as written; N and C are the ends. Square brackets hold non-standard residues; d marks the D form. Side chains are listed from the residue outwards. Peptide text beside a SMILES is read from it. * marks the point of attachment. DOTA(Lu) = O=C1CN2CCN3CCN(CC(=O)*)CCN(CC2)CC(=O)[O][Lu]([O]1)[O]C(=O)C3; NH(1-deoxy-D-glucityl) = OC[C@@H](O)[C@@H](O)[C@H](O)[C@@H](O)CN*; DOTA = O=C(O)CN1CCN(CC(=O)O)CCN(CC(=O)*)CCN(CC(=O)O)CC1; Trp(1-Me,7-Cl) = Cn1cc(C[C@H](N)C(=O)O)c2cccc(Cl)c21; dPhe(3-CONH2) = NC(=O)c1cccc(C[C@@H](N)C(=O)O)c1; Piperazinyl(4-CH2COOH) = O=C(O)CN1CCN(*)CC1; Trp(1-Me) = Cn1cc(C[C@H](N)C(=O)O)c2ccccc21; PEG8 = NCCOCCOCCOCCOCCOCCOCCOCCOCCC(=O)O; NMe3Pal = CN[C@@H](Cc1cccnc1)C(=O)O; NMeF = CN[C@@H](Cc1ccccc1)C(=O)O; hCit = NC(=O)NCCCC[C@H](N)C(=O)O; Gly(cBu) = N[C@H](C(=O)O)C1CCC1; NMeE = CN[C@@H](CCC(=O)O)C(=O)O; Aad = N[C@@H](CCCC(=O)O)C(=O)O; NMeN = CN[C@@H](CC(N)=O)C(=O)O; PEG2 = NCCOCCOCCC(=O)O; CO = O=C([*:1])[*:2]; βAla = NCCC(=O)O
# Target: T1, Recombinant Human EphA2 Fc Protein (Homo sapiens, UniProt P29317)
# T1 construct: purchased Elabscience
# T1 sequence (P29317 24-534 limits assumed): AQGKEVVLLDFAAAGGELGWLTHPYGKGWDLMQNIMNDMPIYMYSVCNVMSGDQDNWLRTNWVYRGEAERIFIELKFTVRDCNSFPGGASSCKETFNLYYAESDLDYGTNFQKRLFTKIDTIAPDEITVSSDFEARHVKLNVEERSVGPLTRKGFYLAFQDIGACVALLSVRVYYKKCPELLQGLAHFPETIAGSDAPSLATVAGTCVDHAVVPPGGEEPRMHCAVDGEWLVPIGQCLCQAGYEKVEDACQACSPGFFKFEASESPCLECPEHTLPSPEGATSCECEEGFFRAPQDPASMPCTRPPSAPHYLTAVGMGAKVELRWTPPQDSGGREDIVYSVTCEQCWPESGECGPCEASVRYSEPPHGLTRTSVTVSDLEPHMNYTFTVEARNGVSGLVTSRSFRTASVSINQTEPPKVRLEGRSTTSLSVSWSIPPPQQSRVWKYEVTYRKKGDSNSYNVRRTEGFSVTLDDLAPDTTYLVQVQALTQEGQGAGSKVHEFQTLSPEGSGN
# Test: Interaction analysis (kinetics, KD) of peptides and conjugates against EphA2 by SPR, Biacore T200, single-cycle kinetics (Examples B15 and B22)
# Format: binding
# Settings: not given
# Procedure: Example B15. Interaction Analysis by SPR was Performed Using Biacore (Cytiva)
# SPR assay was performed using Biacore T200 (Cytiva).
# The HBS-P+ buffer (10 mM HEPES (pH7.4), 150 mM NaCl, 0.05% (v/v) Surfactant P20) containing 1% DMSO was used as running buffer. Recombinant Human EphA2 Fc Protein (Fc tag, Elabscience) was captured by Human Antibody Capture kit (Cytiva). Peptide samples in DMSO were diluted with running buffer, and prepared five serial dilutions. Using these serial dilutions, kinetics of peptides against EphA2 was measured at a flow rate of […] at 25 °C. The method adopted for sample measurement was a single-cycle kinetics method. The analysis was conducted using the evaluation software 3.0 provided with Biacore T200. Kinetics fitting was done on the difference data obtained by subtracting the baseline data from sample measurement data. KD values were calculated based on the association rate constant (ka) and dissociation rate constant (kd).
# Example B22: Interaction Analysis of Conjugates by SPR was Performed Using Biacore (Cytiva)
# SPR assay was performed using Biacore T200 (Cytiva) according to Example B15.
row,SMILES,Kd
1,CC(C)C[C@@H]1NC(=O)[C@H](CC(N)=O)NC(=O)[C@H](Cc2cccnc2)N(C)C(=O)[C@@H](C)NC(=O)CSC[C@@H](C(=O)N[C@H](CCCCNC(=O)CN(C)C(=O)CN(C)C(=O)CN(C)C(=O)CN(C)C(=O)CN(C)C(=O)CN(C)C(=O)CN(C)C(=O)CN(C)C(=O)CN(C)C(=O)CN(C)C(=O)CCNC(=O)CN2CCN3CCN4CCN(CC2)CC(=O)[O][Lu]([O]C(=O)C3)[O]C(=O)C4)C(N)=O)NC(=O)[C@H](CCCC(N)=O)NC(=O)[C@H]([C@@H](C)O)NC(=O)[C@H](Cc2cn(C)c3ccccc23)NC(=O)[C@H](CCCCNC(=O)N2CCN(CC(=O)O)CC2)NC(=O)[C@H](Cc2cn(C)c3ccccc23)NC(=O)C(CCC(=O)O)N(C)C(=O)[C@H](CCCC(N)=O)NC1=O (some centres unmarked) [PDC_EphA2-00007196-C310],< 1 nM
2,C[C@H]1NC(=O)CSC[C@@H](C(=O)N[C@H](CCCCNC(=O)CN2CCN3CCN4CCN(CC2)CC(=O)[O][Lu]([O]C(=O)C3)[O]C(=O)C4)C(N)=O)NC(=O)[C@H](CCCC(N)=O)NC(=O)[C@H]([C@@H](C)O)NC(=O)[C@H](Cc2cn(C)c3ccccc23)NC(=O)[C@H](CCC(=O)NC[C@H](O)[C@@H](O)[C@H](O)[C@H](O)CO)NC(=O)[C@H](Cc2cn(C)c3ccccc23)NC(=O)[C@H](Cc2cccnc2)N(C)C(=O)[C@H](CCCC(N)=O)NC(=O)[C@H](C2CCC2)NC(=O)[C@H](CC(N)=O)NC(=O)[C@H](Cc2ccccc2)N(C)C1=O [PDC_EphA2-00013704-C302] ({CH2CO}-[dA][NMeF]N[Gly(cBu)][Aad](NH2)[NMe3Pal][Trp(1-Me)]E(NH(1-deoxy-D-glucityl))[Trp(1-Me)]T[Aad](NH2)C[dK](DOTA(Lu))-NH2; thioether N-12),< 1 nM
3,C[C@H]1NC(=O)CSC[C@@H](C(=O)N[C@H](CCCCNC(=O)CN2CCN3CCN4CCN(CC2)CC(=O)[O][Lu]([O]C(=O)C3)[O]C(=O)C4)C(N)=O)NC(=O)[C@H](CCCC(N)=O)NC(=O)[C@H]([C@@H](C)O)NC(=O)[C@H](Cc2cn(C)c3ccccc23)NC(=O)[C@H](CCC(=O)NC[C@H](O)[C@@H](O)[C@H](O)[C@H](O)CO)NC(=O)[C@H](Cc2cn(C)c3ccccc23)NC(=O)[C@H](Cc2cccnc2)N(C)C(=O)[C@H](CCCC(N)=O)NC(=O)[C@H](C2CCC2)NC(=O)[C@H](CC(N)=O)NC(=O)[C@H](Cc2cccnc2)N(C)C1=O [PDC_EphA2-00013705-C302] ({CH2CO}-[dA][NMe3Pal]N[Gly(cBu)][Aad](NH2)[NMe3Pal][Trp(1-Me)]E(NH(1-deoxy-D-glucityl))[Trp(1-Me)]T[Aad](NH2)C[dK](DOTA(Lu))-NH2; thioether N-12),< 1 nM

# Same assay, conditions: conjugates, Biacore T200 according to Example B15, Table B16; read-out: SPR Kd
row,SMILES,Kd
1,CC(C)C[C@@H]1NC(=O)[C@H](CC(N)=O)NC(=O)[C@H](Cc2ccccc2)N(C)C(=O)[C@@H](C)NC(=O)CSC[C@@H](C(=O)NCCC(=O)N[C@H](CCCCNC(=O)CCOCCOCCNC(=O)CCOCCOCCOCCOCCOCCOCCOCCOCCNC(=O)CN2CCN(CC(=O)O)CCN(CC(=O)O)CCN(CC(=O)O)CC2)C(N)=O)NC(=O)[C@H](CCC(=O)O)NC(=O)[C@H]([C@@H](C)O)NC(=O)[C@H](Cc2cn(C)c3ccccc23)NC(=O)[C@H](C(C)C)NC(=O)[C@H](Cc2cn(C)c3ccccc23)NC(=O)[C@H](Cc2ccccc2)N(C)C(=O)[C@H](CCCC(=O)O)NC1=O.[Lu+3] [PDC_EphA2-00001417-C304] ({CH2CO}-[dA][NMeF]NL[Aad][NMeF][Trp(1-Me)]V[Trp(1-Me)]TEC[βAla][dK]([PEG2-PEG8-DOTA])-NH2; thioether N-12),1 to 10 nM
2,CC(C)C[C@@H]1NC(=O)[C@H](CC(N)=O)NC(=O)[C@H](Cc2cccnc2)N(C)C(=O)[C@@H](C)NC(=O)CSC[C@@H](C(=O)NCCC(=O)N[C@H](CCCCNC(=O)CCOCCOCCNC(=O)CCOCCOCCOCCOCCOCCOCCOCCOCCNC(=O)CN2CCN(CC(=O)O)CCN(CC(=O)O)CCN(CC(=O)O)CC2)C(N)=O)NC(=O)[C@H](CCCC(N)=O)NC(=O)[C@H]([C@@H](C)O)NC(=O)[C@H](Cc2cn(C)c3ccccc23)NC(=O)[C@H](CCCCNC(=O)N2CCN(CC(=O)O)CC2)NC(=O)[C@H](Cc2cn(C)c3ccccc23)NC(=O)[C@H](CCC(=O)O)N(C)C(=O)[C@H](CCCC(N)=O)NC1=O.[Lu+3] [PDC_EphA2-00007196-C304] ({CH2CO}-[dA][NMe3Pal]NL[Aad](NH2)[NMeE][Trp(1-Me)]K([CO-Piperazinyl(4-CH2COOH)])[Trp(1-Me)]T[Aad](NH2)C[βAla][dK]([PEG2-PEG8-DOTA])-NH2; thioether N-12),< 1 nM
3,CC(C)C[C@@H]1NC(=O)[C@H](CC(N)=O)NC(=O)[C@H](Cc2cccnc2)N(C)C(=O)[C@@H](C)NC(=O)CSC[C@@H](C(=O)NCCC(=O)N[C@H](CCCCNC(=O)CCOCCOCCNC(=O)CCOCCOCCOCCOCCOCCOCCOCCOCCNC(=O)CN2CCN(CC(=O)O)CCN(CC(=O)O)CCN(CC(=O)O)CC2)C(N)=O)NC(=O)[C@H](CCCC(N)=O)NC(=O)[C@H]([C@@H](C)O)NC(=O)[C@H](Cc2cn(C)c3ccccc23)NC(=O)[C@H](CCCCNC(=O)N2CCN(CC(=O)O)CC2)NC(=O)[C@H](Cc2cn(C)c3ccccc23)NC(=O)[C@H](Cc2ccccc2)N(C)C(=O)[C@H](CCCC(N)=O)NC1=O.[Lu+3] [PDC_EphA2-00008093-C304] ({CH2CO}-[dA][NMe3Pal]NL[Aad](NH2)[NMeF][Trp(1-Me)]K([CO-Piperazinyl(4-CH2COOH)])[Trp(1-Me)]T[Aad](NH2)C[βAla][dK]([PEG2-PEG8-DOTA])-NH2; thioether N-12),< 1 nM
4,CC(C)C[C@@H]1NC(=O)[C@H](CC(N)=O)NC(=O)[C@H](Cc2cccnc2)N(C)C(=O)[C@@H](C)NC(=O)CSC[C@@H](C(=O)NCCC(=O)N[C@H](CCCCNC(=O)CCOCCOCCNC(=O)CCOCCOCCOCCOCCOCCOCCOCCOCCNC(=O)CN2CCN(CC(=O)O)CCN(CC(=O)O)CCN(CC(=O)O)CC2)C(N)=O)NC(=O)[C@H](CCCC(N)=O)NC(=O)[C@H]([C@@H](C)O)NC(=O)[C@H](Cc2cn(C)c3ccccc23)NC(=O)[C@H](CCCCNC(=O)N2CCN(CC(=O)O)CC2)NC(=O)[C@H](Cc2cn(C)c3ccccc23)NC(=O)[C@H](CCC(=O)O)N(C)C(=O)[C@H](CCCC(=O)O)NC1=O.[Lu+3] [PDC_EphA2-00008094-C304] ({CH2CO}-[dA][NMe3Pal]NL[Aad][NMeE][Trp(1-Me)]K([CO-Piperazinyl(4-CH2COOH)])[Trp(1-Me)]T[Aad](NH2)C[βAla][dK]([PEG2-PEG8-DOTA])-NH2; thioether N-12),< 1 nM
5,C[C@H]1NC(=O)CSC[C@@H](C(=O)N[C@H](CCCCNC(=O)CN2CCN(CC(=O)O)CCN(CC(=O)O)CCN(CC(=O)O)CC2)C(N)=O)NC(=O)[C@H](CCCC(N)=O)NC(=O)[C@H]([C@@H](C)O)NC(=O)[C@H](Cc2cn(C)c3ccccc23)NC(=O)[C@H](CCC(=O)NC[C@H](O)[C@@H](O)[C@H](O)[C@H](O)CO)NC(=O)[C@H](Cc2cn(C)c3ccccc23)NC(=O)[C@H](CC(N)=O)N(C)C(=O)[C@H](CCCC(N)=O)NC(=O)[C@H](C2CCC2)NC(=O)[C@H](CC(N)=O)NC(=O)[C@H](Cc2ccccc2)N(C)C1=O.[Lu+3] [PDC_EphA2-00013703-C302] ({CH2CO}-[dA][NMeF]N[Gly(cBu)][Aad](NH2)[NMeN][Trp(1-Me)]E(NH(1-deoxy-D-glucityl))[Trp(1-Me)]T[Aad](NH2)C[dK](DOTA)-NH2; thioether N-12),< 1 nM
6,"C[C@@H](O)[C@@H]1NC(=O)[C@H](Cc2cn(C)c3ccccc23)NC(=O)[C@H](CCC(=O)NC[C@H](O)[C@@H](O)[C@H](O)[C@H](O)CO)NC(=O)[C@H](Cc2cn(C)c3c(Cl)cccc23)NC(=O)[C@H](Cc2cccnc2)N(C)C(=O)[C@H](CCCC(N)=O)NC(=O)[C@H](C2CCC2)NC(=O)[C@H](CC(N)=O)NC(=O)[C@H](Cc2cccnc2)N(C)C(=O)[C@@H](Cc2cccc(C(N)=O)c2)NC(=O)CSC[C@@H](C(=O)N[C@H](CCCCNC(=O)CN2CCN(CC(=O)O)CCN(CC(=O)O)CCN(CC(=O)O)CC2)C(N)=O)NC(=O)[C@H](CCCC(N)=O)NC1=O.[Lu+3] [PDC_EphA2-00019437-C302] ({CH2CO}-[dPhe(3-CONH2)][NMe3Pal]N[Gly(cBu)][Aad](NH2)[NMe3Pal][Trp(1-Me,7-Cl)]E(NH(1-deoxy-D-glucityl))[Trp(1-Me)]T[Aad](NH2)C[dK](DOTA)-NH2; thioether N-12)",< 1 nM

# Same assay, conditions: peptides, Biacore T200, 25 °C, Table B12; read-out: SPR Kd
row,SMILES,Kd
1,CC(=O)NCCCC[C@@H](NC(=O)CCNC(=O)[C@@H]1CSCC(=O)N[C@H](C)C(=O)N(C)[C@@H](Cc2cccnc2)C(=O)N[C@@H](CC(N)=O)C(=O)N[C@@H](CC(C)C)C(=O)N[C@@H](CCCC(=O)O)C(=O)N(C)[C@@H](Cc2ccccc2)C(=O)N[C@@H](Cc2cn(C)c3ccccc23)C(=O)N[C@@H](C(C)C)C(=O)N[C@@H](Cc2cn(C)c3ccccc23)C(=O)N[C@@H]([C@@H](C)O)C(=O)N[C@@H](CCC(=O)O)C(=O)N1)C(N)=O [PDC_EphA2-00008083] ({CH2CO}-[dA][NMe3Pal]NL[Aad][NMeF][Trp(1-Me)]V[Trp(1-Me)]TEC[βAla][dK](Ac)-NH2; thioether N-12),< 1 nM
2,"C[C@@H](O)[C@@H]1NC(=O)[C@H](Cc2cn(C)c3ccccc23)NC(=O)[C@H](CCCCNC(N)=O)NC(=O)[C@H](Cc2cn(C)c3c(Cl)cccc23)NC(=O)[C@H](CC(N)=O)N(C)C(=O)[C@H](CCCC(N)=O)NC(=O)[C@H](C2CCC2)NC(=O)[C@H](CC(N)=O)NC(=O)[C@H](Cc2ccccc2)N(C)C(=O)[C@@H](Cc2cccc(C(N)=O)c2)NC(=O)CSC[C@@H](C(N)=O)NC(=O)[C@H](CCCC(N)=O)NC1=O [PDC_EphA2-00019426] ({CH2CO}-[dPhe(3-CONH2)][NMeF]N[Gly(cBu)][Aad](NH2)[NMeN][Trp(1-Me,7-Cl)][hCit][Trp(1-Me)]T[Aad](NH2)C-NH2; thioether N-12)",< 1 nM
